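Compound exposure: 48 hours, 5 concentrations, 96-well plates. At the GI50, growth is halved. Definition used: TGI = concentration required for complete inhibition of growth.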
Tests used:
Experiment in all cases: growth of human tumour cells (NCI), 48 h
[1] = test system: DU-145 prostate
[2] = test system: HOP-62 NSCLC
[3] = test system: HS 578T breast
[4] = test system: KM12 colon
[5] = test system: MOLT-4 leukemia
[6] = test system: NCI-H23 lung
[7] = test system: RPMI-8226 leukemia
[8] = test system: SK-MEL-5 melanoma
[9] = test system: MALME-3M melanoma
[10] = test system: OVCAR-8 ovarian

| SMILES | GI50 [1] | TGI [1] | GI50 [2] | TGI [2] | GI50 [3] | TGI [3] | GI50 [4] | TGI [4] | GI50 [5] | TGI [5] | GI50 [6] | TGI [6] | GI50 [7] | TGI [7] | GI50 [8] | TGI [8] | TGI [9] | TGI [10] | GI50 [10] | GI50 [9] |
| --- | --- | --- | --- | --- | --- | --- | --- | --- | --- | --- | --- | --- | --- | --- | --- | --- | --- | --- | --- | --- |
| CCN1C(=O)N(CC)C2C1NN=c1s/c(=C3\C(=O)N(CCC(C)C)c4ccccc43)c(=O)n12 (configuration not stated) | 2.91 µM | 9.33 µM | 1.89 µM | 6.45 µM | 1.08 µM | 4.87 µM | 0.616 µM | 11.4 µM | 2.86 µM | > 100 µM | 1.9 µM | 5.47 µM | 1.68 µM | 5.77 µM | 1.55 µM | 3.41 µM | – | – | – | – |
| CC1(C)SC2C(C(=O)O)N=C(Cc3ccccc3)N2C1C(=O)O (configuration not stated) | – | > 100 µM | – | > 100 µM | – | 95.7 µM | – | > 100 µM | – | > 100 µM | – | > 100 µM | – | > 100 µM | – | > 100 µM | > 100 µM | > 100 µM | – | – |
| Cc1ccc(-c2csc(N(C(=O)N3CCN(c4cc5c(cc4F)c(=O)c(C(=O)O)cn5C4CC4)CC3)c3ccccc3)n2)cc1 | 0.46 µM | > 100 µM | 0.389 µM | > 46.3 µM | 0.428 µM | > 100 µM | 0.371 µM | > 100 µM | – | – | 0.317 µM | > 100 µM | 0.368 µM | > 100 µM | 0.541 µM | > 100 µM | – | > 100 µM | 0.405 µM | – |
| COc1ccc2[nH]c3c4c(c5cc(C(C)(C)C)ccc5c3c2c1)C(=O)N(c1ccccc1)C4=O | – | – | – | > 100 µM | – | – | – | > 100 µM | – | > 100 µM | – | > 100 µM | – | > 100 µM | – | > 100 µM | > 100 µM | > 100 µM | – | – |
| COc1cc2[nH]c(C(=O)c3cc(OC)c(OC)c(OC)c3)c(N)c2cc1C#CCO | – | – | 0.322 µM | > 100 µM | 0.345 µM | 72.3 µM | 0.334 µM | > 100 µM | 0.649 µM | > 100 µM | 0.508 µM | > 100 µM | 1.64 µM | 83.6 µM | 0.087 µM | 1.3 µM | > 100 µM | > 100 µM | 0.533 µM | 0.143 µM |
| C[C@H](c1ccc(Cl)cc1N)N1C(=O)c2cc(I)ccc2N(CCCN2CCN(C)CC2)C(=O)[C@@H]1c1ccc(Cl)cc1 | 1.79 µM | 3.31 µM | – | – | 1.74 µM | 3.84 µM | 1.78 µM | 3.24 µM | 1.75 µM | 3.59 µM | 2.18 µM | 5.86 µM | 1.7 µM | 3.69 µM | 1.57 µM | 2.92 µM | 1.27 µM | – | – | 0.242 µM |
| CC(=O)CC(=O)N(CCN(C(=O)CC(C)=O)c1ccccc1)c1ccccc1 | – | – | – | > 100 µM | – | – | – | > 100 µM | – | > 100 µM | – | > 100 µM | – | > 100 µM | – | > 100 µM | > 100 µM | > 100 µM | – | – |
| O=C(O)C(=O)Cc1ccc2c(c1)OCO2 | – | > 100 µM | – | > 100 µM | – | – | – | > 100 µM | – | > 100 µM | – | > 100 µM | – | > 100 µM | – | > 100 µM | – | > 100 µM | – | – |
| CSc1ccc(-c2cn3ccsc3n2)c(O)c1 | – | – | – | > 100 µM | – | – | – | > 100 µM | – | > 100 µM | – | > 100 µM | – | > 65 µM | – | > 100 µM | > 100 µM | > 100 µM | – | – |
| CC(C)C1C(=O)N2CCCC2C2(O)OC(NC(=O)C3C=C4c5cccc6[nH]cc(c56)CC4N(C)C3)(C(C)C)C(=O)N12 (configuration not stated) | – | > 100 µM | – | > 100 µM | – | > 100 µM | – | 47.7 µM | – | 53.8 µM | – | > 100 µM | – | 47.9 µM | – | 57.9 µM | – | 52.9 µM | – | – |
| C#C[C@@]1(O)[C@@H](CO)O[C@@H](n2cc(Cl)c3c(N)ncnc32)[C@@H]1O | 0.131 µM | > 52 µM | 0.254 µM | 1.97 µM | 1.07 µM | > 26.5 µM | 0.142 µM | > 100 µM | 0.17 µM | > 26.4 µM | 0.192 µM | 0.957 µM | 0.151 µM | 0.607 µM | – | – | 3.18 µM | 1.48 µM | 0.0336 µM | 0.241 µM |
| CN1CCC23c4c5ccc(O)c4OC2C(=NN=C2CCC4(O)C6Cc7ccc(O)c8c7C4(CCN6C)C2O8)CCC3(O)C1C5 (configuration not stated) | – | – | – | > 100 µM | – | – | – | > 100 µM | – | > 100 µM | – | > 100 µM | – | > 100 µM | – | > 100 µM | > 100 µM | > 100 µM | – | – |
| CS(=O)(=O)c1ccc(N/N=C/c2c(-c3ccc(S(C)(=O)=O)cc3)[nH]c3ccc(F)cc23)cc1 | 2.75 µM | > 50 µM | 2.17 µM | > 50 µM | – | – | 2.84 µM | > 50 µM | 1.19 µM | > 50 µM | 2.84 µM | > 50 µM | 1.15 µM | 2.9 µM | 0.792 µM | 1.5 µM | 4.38 µM | > 50 µM | 1.24 µM | 1.34 µM |
| CC1(C)CC23C(=O)N(c4ccccc4)C(=Nc4ccccc4)NC2=CC(C#N)=C(C#N)C3O1 (configuration not stated) | – | – | – | > 100 µM | – | – | – | > 100 µM | – | > 100 µM | – | > 100 µM | – | > 100 µM | – | 95.5 µM | > 100 µM | > 100 µM | – | – |
| C/C(=N\O)c1sc(-n2nc(-c3ccccc3)cc2-c2ccccc2)nc1C | – | – | – | 22.2 µM | – | – | – | 17.3 µM | – | 25.5 µM | – | 15.1 µM | – | 23.6 µM | – | 17.3 µM | 31 µM | 18.1 µM | – | – |
| COC1=CC(=O)c2ccc(C(C)C)cc2C1(C)C1=NC(C)(C)CO1 (configuration not stated) | – | – | – | > 100 µM | – | – | – | > 100 µM | – | > 100 µM | – | > 100 µM | – | > 100 µM | – | > 100 µM | > 100 µM | > 100 µM | – | – |
| CCOC(=O)C1Cc2c(ccc(OC)c2OC)C(=O)C1N (configuration not stated) | – | – | – | > 100 µM | – | – | – | > 100 µM | – | > 100 µM | – | > 100 µM | – | > 100 µM | – | > 100 µM | > 100 µM | > 100 µM | – | – |
| C[C@]12CCC[C@H](OC=O)C1(O)C[C@H](C(=O)O)CC2 (some centres not stated) | – | – | – | > 100 µM | – | – | – | > 100 µM | – | > 100 µM | – | > 100 µM | – | > 100 µM | – | > 100 µM | > 100 µM | > 100 µM | – | – |
| CC[O-].CC[O-].[O-]c1ccccc1C=Nc1ccccc1.[O-]c1ccccc1C=Nc1ccccc1.[Ti+4] | – | – | > 100 µM | > 100 µM | – | – | 26.7 µM | > 100 µM | 28.4 µM | > 100 µM | > 100 µM | > 100 µM | > 100 µM | > 100 µM | 45.5 µM | > 100 µM | > 100 µM | > 100 µM | 97.3 µM | > 100 µM |
